Ends that are not written are not given here. Peptide text beside a SMILES is read from it.
What was measured:
VEGFR-2/NP-1 = tested on: T1, VEGFR-2/NP-1; format: binding, human
T1 construct: In the COS-1 cells overexpressing the full-length VEGFR-2; the NP-1 cDNA used for these experiments would only produce the full-length receptor; expressed in transfected cells; host or cells: COS-1
Description: (§1) When co-expressing VEGFR-2 and NP-1, 5 μg of VEGFR-2 cDNA and 2 μg of NP-1 cDNA are used. When the receptors are expressed in isolation, for VEGFR-2, 5 μg of VEGFR-2 cDNA and 2 μg of mock vector cDNA are used.
(§2) After generation of the liposome/DNA solution, the cells are rinsed one time with 5 ml Optimem I, then replaced with another 5 ml of Optimem I containing the liposome/DNA solution. The cells are incubated for two to four hours at 37° C., 5% CO2, then 5 ml of COS-1 cell growth medium is applied and the transfection is allowed to proceed overnight. The following day, cells are trypsinized (0.2% trypsin, 1 mM EDTA, Gibco-BRL), and cells containing common transfectants are pooled. […] The cells are then used for corresponding VEGFR-2/NP-1 complex formation and peptide blocking studies.
(§3) Cells are plated the day before experimentation at 200,000 cells per well in twelve well tissue culture plates (VWR) in 1 ml of growth medium specific for each cell type. On the day of experimentation, the cells were pre-equilibrated at 4° C. for 30 to 60 minutes in binding buffer (0.2% BSA, Sigma; 25 mM Hepes, Gibco; MEM, Gibco). […] The binding reaction is allowed to reach equilibrium for four hours at 4° C. with gentle agitation.
(§4) Unbound ligand is then removed by quickly washing three times with 5 ml ice cold BSA-free binding buffer (MEM, Gibco, 25 mM Hepes, Gibco). Cells are lysed by the addition of 250 μl of RIPS Buffer (previously described), and the lysed cells are transferred to 12×75 mm test tubes and counted using a gamma counter. Generation of competition curves and IC50 values are performed using the Prism software package (Graphpad Software Inc., San Diego, Calif.).

NP-1 = NP-1 (Homo sapiens, UniProt O14786); format: binding; set-up: the NP-1 cDNA used for these experiments would only produce the full-length receptor; expressed in transfected cells; host or cells: COS-1
Description: as §1, §2, §3, §4

[1] = tested on: VEGF165 vascular growth response; experiment: Mouse corneal pocket model; format: in vivo; set-up: key to Score #1 (subjective neovascular response score) / Score #2 (subjective neovascular response score) / Score #3 (subjective neovascular response score): subjective neovascular growth score, 0 to 6 scale
Description: A 0.2 μl aliquot of this solution yielded a 4 μg dose. Human recombinant VEGF165 was purchased from R&D Systems (Minneapolis, Minn.), supplied in a lyophilized, carrier free form and reconstituted in the same water as the above peptide. A 0.2 μl aliquot of this solution yielded a 300 ng dose.
Male albino mice (Crl: CD-I (ICR) BR, VAF) from Charles River (Portage, N.C.), 20–24 grams were used. […] Compound adsorbed pellets were fabricated and implanted as described below. The treated eye was imaged on the day of implantation (day 0) and on days 4 and 7 following surgery. The growth response was subjectively graded on a scale from 0 to 6 by three independent graders blinded from the treatment grouping labels using the 3× printed image.
Polyvinyl alcohol (PVA) matrix material (Rippey, El Dorado Hills, Calif.) was cut into 1 cm×3 cm pieces and placed in a vibratome for sectioning on edge to produce 300 μm thick strips. The strips were individually sterilized by exposure to ethylene oxide. A strip was then cut under a dissecting microscope into approximately 300 μm cubes. The desired concentration of test compound or vehicle was adsorbed, sometimes utilizing a micro dessicant chamber. An HP auto sampler micro-syringe (Hamilton, P/N 7000.5) controlled the exact volume of the agent adsorbed onto the sponge. The sponge was then placed on a microscope slide prepared with a coating (20 μl spread over a 0.75 mm×1.5 mm area) of 12% hydron (Sigma, St. Louis, Mo.). The slide was protected in a clean petri dish and placed into a dessicator at 4° C. for a few hours or overnight. The dry, adsorbed sponges were mechanically flattened and overlaid with another aliquot of 12% hydron and again placed into a dessicator to cure the hydron coating. Fabrication of the adsorbed PVA sponge-hydron sandwich (referred to as a pellet) was done no more than 48 hours prior to implantation and the pellets were stored at 4° C. On the day of surgery and just prior to implantation, the pellet was trimmed so that the sponge remained encased by hydron (approximately 400 μm×400 μm×50 μm) and could be carefully removed from the slide.
Mice were anesthetized with 0.05 cc of Ketamine (140 mg/kg) and 0.03 cc Xylazine (17 mg/kg). A surgical plane of anesthesia was maintained by subsequent administration of half doses of the above compounds as needed. The whiskers on the animal's right side were trimmed down to ¼ of an inch. The right eye was bathed in an ophthalmic local anesthetic solution (Ophthaine, 0.5% tetracine hydrochloride) initially and throughout the procedure. The animal was placed on its side and the skin around the eye was gently retracted to expose the lateral and apical aspects of the cornea. The lateral limbic artery bifurcation was positioned horizontally. While stabilizing the eye against the ocular orbit, a vertical incision was made using a micro scalpel into the corneal tissue just lateral to the pupil. Care was taken to prevent accidental perforation of the anterior eye chamber. The incision depth was carefully deepened until a delicate and small lateral stab could be made (on axis with the lateral limbic artery bifurcation) with the micro scalpel into the middle of the corneal stroma. This lateral, intrastromal incision was enlarged by blunt dissection with very fine forceps until a pocket was formed from the vertical incision toward the limbus.
A hydron coated PVA sponge with adsorbed test compound (pellet) was prepared for implantation by carefully excising and removing it from the microscope slide. The pellet was introduced gently into the corneal pocket and advanced to within 1–2 mm of the limbus. The edges of the vertical corneal incision were approximated to encourage rapid healing. The imaging procedure (described below) was used to document the native limbic vascular architecture at the time of implantation. Post surgical recovery of the animal consisted of triple antibiotic ophthalmic ointment to prevent corneal drying, abrasion and infection. […]

NP-1, sequence (O14786 22-923): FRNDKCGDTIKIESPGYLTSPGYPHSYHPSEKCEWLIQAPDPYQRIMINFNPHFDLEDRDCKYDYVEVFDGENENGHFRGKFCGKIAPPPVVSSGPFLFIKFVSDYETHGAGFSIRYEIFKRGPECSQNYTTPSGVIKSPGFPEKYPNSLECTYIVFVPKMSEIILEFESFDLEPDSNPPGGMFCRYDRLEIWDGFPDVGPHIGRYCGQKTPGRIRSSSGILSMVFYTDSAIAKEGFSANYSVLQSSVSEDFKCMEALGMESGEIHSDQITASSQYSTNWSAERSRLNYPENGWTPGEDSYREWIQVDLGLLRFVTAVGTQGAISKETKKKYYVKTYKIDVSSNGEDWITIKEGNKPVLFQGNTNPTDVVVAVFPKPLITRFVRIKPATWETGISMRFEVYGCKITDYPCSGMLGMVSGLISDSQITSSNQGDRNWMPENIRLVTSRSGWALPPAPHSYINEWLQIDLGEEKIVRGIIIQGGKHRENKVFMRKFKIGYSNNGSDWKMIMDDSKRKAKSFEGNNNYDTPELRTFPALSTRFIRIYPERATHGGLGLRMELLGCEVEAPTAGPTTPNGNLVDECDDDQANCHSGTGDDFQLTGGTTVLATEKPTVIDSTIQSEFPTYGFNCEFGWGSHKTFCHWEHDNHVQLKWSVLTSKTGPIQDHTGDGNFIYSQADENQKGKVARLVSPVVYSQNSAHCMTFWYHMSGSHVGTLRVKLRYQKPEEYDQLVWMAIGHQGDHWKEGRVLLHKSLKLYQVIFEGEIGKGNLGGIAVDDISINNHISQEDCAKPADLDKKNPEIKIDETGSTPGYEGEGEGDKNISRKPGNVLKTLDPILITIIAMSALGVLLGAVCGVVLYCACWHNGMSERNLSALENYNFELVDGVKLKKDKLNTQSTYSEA

Compound | Relative Affinity to Lead Peptide (RALP), VEGFR-2/NP-1 (VEGFR-2/NP-1) | Relative Affinity to Lead Peptide (RALP), NP-1 (NP-1) | also measured
H-AGRGKARREKQRPSDKPRR-OH [P6V8-3NCSA1A6] | 0.93 | 2.30 | –
H-KGAGKRRREKQRPSDKPRR-OH [Peptide P6V8-3NCSA3] | 0.23 | 8.8 | –
H-KGRGARRREKQRPSDKPRR-OH [Peptide P6V8-3NCSA5] | 1.45 | – | –
C[C@@H]1NC(=O)CNC(=O)[C@H](CCCNC(=N)N)NC(=O)CNC(=O)[C@H](C)NC(=O)[C@@H](N)CSSC[C@@H](C(=O)N[C@@H](CCCNC(=N)N)C(=O)N[C@@H](CCC(=O)O)C(=O)N[C@@H](CCCCN)C(=O)N[C@@H](CCC(N)=O)C(=O)N[C@@H](CCCNC(=N)N)C(=O)N2CCC[C@H]2C(=O)N[C@@H](CO)C(=O)N[C@@H](CC(=O)O)C(=O)N[C@@H](CCCCN)C(=O)N2CCC[C@H]2C(=O)N[C@@H](CCCNC(=N)N)C(=O)N[C@@H](CCCNC(=N)N)C(=O)O)NC(=O)[C@H](CCCNC(=N)N)NC1=O [P6V8-3NCS1-7CCA1A5] (HELM PEPTIDE1{C.A.G.R.G.A.R.C.R.E.K.Q.R.P.S.D.K.P.R.R}$PEPTIDE1,PEPTIDE1,1:R3-8:R3$$$V2.0) | – | – | Relative Affinity to Lead (RALP), VEGFR-2/NP-1 (VEGFR-2/NP-1): 17.33; Relative Affinity to Lead (RALP), NP-1 (NP-1): 30.76
H-KGRGKRAAEAQAPSDAPAR-OH [P6V8-3NCSA7,8, 10, 12, 16, 18] | 27.540 | 72.44 | –
C[C@@H]1NC(=O)CNC(=O)[C@H](CCCNC(=N)N)NC(=O)CNC(=O)[C@H](CCCCN)NC(=O)[C@@H](N)CSSC[C@@H](C(=O)N[C@@H](CCCNC(=N)N)C(=O)N[C@@H](CCC(=O)O)C(=O)N[C@@H](CCCCN)C(=O)N[C@@H](CCC(N)=O)C(=O)N[C@@H](CCCNC(=N)N)C(=O)N2CCC[C@H]2C(=O)N[C@@H](CO)C(=O)N[C@@H](CC(=O)O)C(=O)N[C@@H](CCCCN)C(=O)N2CCC[C@H]2C(=O)N[C@@H](CCCNC(=N)N)C(=O)N[C@@H](CCCNC(=N)N)C(=O)O)NC(=O)[C@H](CCCNC(=N)N)NC1=O [P6V8-3NCS1-7CCA5] (HELM PEPTIDE1{C.K.G.R.G.A.R.C.R.E.K.Q.R.P.S.D.K.P.R.R}$PEPTIDE1,PEPTIDE1,1:R3-8:R3$$$V2.0) | – | – | Relative Affinity to Lead (RALP), VEGFR-2/NP-1 (VEGFR-2/NP-1): 1.87; Relative Affinity to Lead (RALP), NP-1 (NP-1): 1.64
C[C@@H]1NC(=O)[C@@H](N)CSSC[C@@H](C(=O)N[C@@H](CCCNC(=N)N)C(=O)N[C@@H](CCC(=O)O)C(=O)N[C@@H](CCCCN)C(=O)N[C@@H](CCC(N)=O)C(=O)N[C@@H](CCCNC(=N)N)C(=O)N2CCC[C@H]2C(=O)N[C@@H](CO)C(=O)N[C@@H](CC(=O)O)C(=O)N[C@@H](CCCCN)C(=O)N2CCC[C@H]2C(=O)N[C@@H](CCCNC(=N)N)C(=O)N[C@@H](CCCNC(=N)N)C(=O)O)NC(=O)[C@H](CCCNC(=N)N)NC(=O)[C@H](CCCCN)NC(=O)CNC(=O)[C@H](CCCNC(=N)N)NC(=O)CNC1=O [P6V8-3NCS1-7CCA1] (HELM PEPTIDE1{C.A.G.R.G.K.R.C.R.E.K.Q.R.P.S.D.K.P.R.R}$PEPTIDE1,PEPTIDE1,1:R3-8:R3$$$V2.0) | – | – | Relative Affinity to Lead (RALP), VEGFR-2/NP-1 (VEGFR-2/NP-1): 1.97; Relative Affinity to Lead (RALP), NP-1 (NP-1): 14.35
H-KGRGKRAAEAQRPSDKPRR-OH [P6V8-3NCSA7,8, 10] | 3.27 | 14.25 | –
H-AGRGARAAEAQRPSDKPRR-OH [P6V8-3NCSA1,5,7,8, 10] | 5.22 | 67.76 | –
H-RRPKGRGKRRREKQRPSDAAAR-OH [AS-5] | 0.71 | 1.6 | –
H-AGRGKRRREKQRPSDKPRR-OH [Peptide P6V8-3NCSA1] | – | 0.99 | –
H-KGRGKRAAEKQAPSDKPRR-OH [P6V8-3NCSA7,8, 12] | – | 1.91 | –
H-RRPAAAGKRRREKQRPSDKPRR-OH [AS-1, RRP AAA GKR RRE KQR PSD KPR R] | 1 | 8 | –
H-AGRGARRREKQRPSDKPRR-OH [P6V8-3NCSA1A5] | 0.71 | – | –
H-KGRGKARREKQRPSDKPRR-OH [Peptide P6V8-3NCSA6] | 5.10 | 2.16 | –
RRPKGRGKRRREKQRPCDKPRR [Peptide P6V8, RRP KGR GKR RRE KQR P CDKPRR] | – | – | score of eye images by all graders ([1]; Day 7, P6V8 alone 4 μg, 0 = no change in limbic vasculature from Day 0): 0; vascular growth response to 300 ng of VEGF165 in the presence of peptide ([1]; P6V8 4 μg, mouse corneal micro pocket): attenuated; Score #1 (subjective neovascular response score) ([1]; grader 1, per animal, scale 0 to 6, pellet P6V8 4 μg and/or VEGF165 300 ng): 0; Score #2 (subjective neovascular response score) ([1]; grader 2, per animal, scale 0 to 6, pellet P6V8 4 μg and/or VEGF165 300 ng): 0; Score #3 (subjective neovascular response score) ([1]; grader 3, per animal, scale 0 to 6, pellet P6V8 4 μg and/or VEGF165 300 ng): 0
H-KGAGKARREKQRPSDKPRR-OH [P6V8-3NCSA3A6] | 8.20 | 48.8 | –

Reference: patent US7052705B2, “Anti-angiogenic peptides” (Regeneron Pharmaceuticals, Inc., priority 2001, dated 2006)
